Columns and labels:
HDAC in cells = assay: Cellular HDAC inhibition (cellular histone hyperacetylation / cytotoxicity assays; Table 1 only says Cellular IC50); assay type: cell-based; conditions: transformed cell lines (e.g. HeLa, A549, MCF-7); cell line not given
Method: 2) Cellular Histone Hyperacetylation Assays:
These two secondary assays evaluate a compound's ability to inhibit HDAC in cells by measuring cellular histone acetylation levels. The cytoblot facilitates quantitative EC50 information for cellular HDAC inhibition. Transformed cell lines (e.g. HeLa, A549, MCF-7) are cultured under standard media and culture conditions prior to plating.
Cells (approx. 2,500/well) are allowed to adhere 10-24 hours to wells of a 384-well Greiner PS assay plate in media containing 1-5% serum. Cells are treated with appropriate compound and specific concentrations for 0 to 24 hours. Cells are washed once with PBS (60 μL) and then fixed (95% ethanol, 5% acetic acid or 2% PFA) for 1 minute at RT (30 μL). Cells are blocked with 1% BSA for 1 hour and washed and stained with antibody (e.g. anti-Acetylated Histone H3, Upstate Biotechnology), followed by washing and incubation with an appropriate secondary antibody conjugated to HRP or fluorophore. For luminescence assays, signal is generated using Luminol substrate (Santa Cruz Biotechnology) and detected using an Aquest plate reader (Molecular Devices).
3) Differential Cytotoxicity Assay:
HDAC inhibitors display differential cytotoxicity toward certain transformed cell lines. Cells are cultured according to standard ATCC recommended conditions that are appropriate to each cell type. Compounds were tested for their ability to kill different cell types (normal and transformed) using the ATPlite luminescence ATP detection assay system (Perkin Elmer). Assays are run in either 384-well or 1536-well Greiner PS plates. Cells (30 μL or 5 μL, respectively) are dispensed using either multichannel pipette for 384-well plates, or proprietary Kalypsys bulk liquid dispenser for 1536-well plates. Compounds added using proprietary pin-transfer device (500 nL or 5 nL) and incubated 5 to 30 hours prior to analysis. Luminescence is measured using Aquest plate reader (Molecular Devices).

HDAC = assay: In vitro HDAC-inhibition assay (Fluor de Lys fluorescent activity assay); assay type: biochemical; conditions: HDAC enzyme source (e.g. nuclear extract or immunopurified HDAC complexes), Fluor de Lys substrate, 30 minutes RT
Method: 1) In vitro HDAC-inhibition Assay:
This assay measures a compound's ability to inhibit acetyl-lysine deacetylation in vitro and was used as both a primary screening method as well as for IC50 determinations of confirmed inhibitors. The assay is performed in vitro using an HDAC enzyme source (e.g. partially purified nuclear extract or immunopurified HDAC complexes) and a proprietary fluorescent substrate/developer system (HDAC Quantizyme Fluor de Lys Fluorescent Activity Assay, BIOMOL). The assay is run in 1,536-well Greiner white-bottom plates using the following volumes and order of addition: • Step 1: Enzyme (2.5 μL) source added to plate (from refrigerated container) • Step 2: Compounds (50 nL) added with pin transfer device • Step 3: Fluor de Lys (2.5 μL) substrate added, incubate at RT, 30 minutes • Step 4: Developer (5 μL) solution is added (containing TSA), to stop reaction • Step 5: Plate Reader—data collection
The deacetylated fluorophore is excited with 360 nm light and the emitted light (460 nm) is detected on an automated fluorometric plate reader (Aquest, Molecular Devices).

In the case of CC(=O)SCC(=O)c1ccc(NS(=O)(=O)c2ccc(OCCCc3ccccn3)cc2)cc1 [Example 17, Thioacetic acid S-(2-oxo-2-{4-[4-(3-pyridin-2-yl-propoxy)-benzenesulfonylamino]-phenyl}-ethyl) ester], the IC50 (HDAC in cells) is reported as ≤ 1000 nM and the IC50 (HDAC) is reported as ≤ 1000 nM.

For CC(=O)SCC(=O)c1ccc(NS(=O)(=O)c2ccc(Oc3ccc(Cl)cc3)cc2)cc1 [Example 04, Thioacetic acid S-(2-{4-[4-(4-chloro-phenoxy)-benzenesulfonylamino]-phenyl}-2-oxo-ethyl) ester], the IC50 (HDAC in cells) was ≤ 1000 nM and the IC50 (HDAC) was ≤ 1000 nM.

In the case of CC(=O)SCC(=O)c1ccc(NS(=O)(=O)c2ccc(OCc3cccnc3)cc2)nc1 [Example 27, Thioacetic acid S-(2-oxo-2-{6-[4-(pyridin-3-ylmethoxy)-benzenesulfonylamino]-pyridin-3-yl}-ethyl) ester], the IC50 (HDAC in cells) is reported as ≤ 1000 nM and the IC50 (HDAC) is reported as ≤ 1000 nM.

With CC(=O)SCC(=O)c1ccc(NS(=O)(=O)c2ccc(OC3CCN(C)CC3)cc2)nc1 [Example 29, Thioacetic acid S-(2-{6-[4-(1-methyl-piperidin-4-yloxy)-benzenesulfonylamino]-pyridin-3-yl}-2-oxo-ethyl) ester] the IC50 (HDAC in cells) was ≤ 1000 nM and the IC50 (HDAC) was ≤ 1000 nM.

With CC(=O)SCC(=O)c1ccc(NS(=O)(=O)c2ccc(OCCCN3CCCCC3)cc2)nc1 [Example 25, Thioacetic acid S-(2-oxo-2-{6-[4-(3-piperidin-1-yl-propoxy)-benzenesulfonylamino]-pyridin-3-yl}-ethyl) ester] the IC50 (HDAC in cells) was ≤ 1000 nM and the IC50 (HDAC) was ≤ 1000 nM.

For CC(=O)SCC(=O)c1ccc(NS(=O)(=O)c2ccc(OC(C)CN3CCCCC3)cc2)nc1 (stereo not drawn) [Example 32, Thioacetic acid S-(2-{6-[4-(1-methyl-2-piperidin-1-yl-ethoxy)-benzenesulfonylamino]-pyridin-3-yl}-2-oxo-ethyl) ester], the IC50 (HDAC in cells) was ≤ 1000 nM and the IC50 (HDAC) was ≤ 1000 nM.

CC(=O)SCC(=O)c1ccc(NS(=O)(=O)c2ccc(OCC3CCCN(C)C3)cc2)nc1 (stereo not drawn) [Example 31, Thioacetic acid S-(2-{6-[4-(1-methyl-piperidin-3-ylmethoxy)-benzenesulfonylamino]-pyridin-3-yl}-2-oxo-ethyl) ester] was tested, and the IC50 (HDAC in cells) was ≤ 1000 nM and the IC50 (HDAC) was ≤ 1000 nM.

In the case of CC(=O)SCC(=O)c1ccc(NS(=O)(=O)c2ccc(OCc3ccccn3)cc2)nc1 [Example 23, Thioacetic acid S-(2-oxo-2-{6-[4-(pyridin-2-ylmethoxy)-benzenesulfonylamino]-pyridin-3-yl}-ethyl) ester], the IC50 (HDAC in cells) is reported as ≤ 1000 nM and the IC50 (HDAC) is reported as ≤ 1000 nM.

For CC(=O)SCC(=O)c1ccc(NS(=O)(=O)c2ccc(CN3CCOCC3)cc2)cc1 [Example 07, Thioacetic acid S-{2-[4-(4-morpholin-4-ylmethyl-benzenesulfonylamino)-phenyl]-2-oxo-ethyl} ester], the IC50 (HDAC in cells) was ≤ 1000 nM and the IC50 (HDAC) was ≤ 1000 nM.

CC(=O)SCC(=O)c1ccc(NS(=O)(=O)c2ccc(OCCN3CCOCC3)cc2)cc1 [Example 20, Thioacetic acid S-(2-{4-[4-(2-morpholin-4-yl-ethoxy)-benzenesulfonylamino]-phenyl}-2-oxo-ethyl) ester] was tested, and the IC50 (HDAC in cells) was ≤ 1000 nM and the IC50 (HDAC) was ≤ 1000 nM.

CC(=O)SCC(=O)c1ccc(NS(=O)(=O)c2ccc(OCCCN3CCOCC3)cc2)nc1 [Example 11, Thioacetic acid S-(2-{6-[4-(3-morpholin-4-yl-propoxy)-benzenesulfonylamino]-pyridin-3-yl}-2-oxo-ethyl) ester] was tested, and the IC50 (HDAC in cells) was ≤ 1000 nM and the IC50 (HDAC) was ≤ 1000 nM.

For CC(=O)SCC(=O)c1ccc(NS(=O)(=O)c2ccc(OC3CCCN(C)C3)cc2)nc1 (stereo not drawn) [Example 30, Thioacetic acid S-(2-{6-[4-(1-methyl-piperidin-3-yloxy)-benzenesulfonylamino]-pyridin-3-yl}-2-oxo-ethyl) ester], the IC50 (HDAC in cells) was ≤ 1000 nM and the IC50 (HDAC) was ≤ 1000 nM.

CC(=O)SCC(=O)c1ccc(NS(=O)(=O)c2ccc(OC3CCN(C)CC3)cc2)cc1 [Example 10, Thioacetic acid S-(2-{4-[4-(1-methyl-piperidin-4-yloxy)-benzenesulfonylamino]-phenyl}-2-oxo-ethyl) ester] was tested, and the IC50 (HDAC in cells) was ≤ 1000 nM and the IC50 (HDAC) was ≤ 1000 nM.

For CC(=O)SCC(=O)c1ccc(NS(=O)(=O)c2ccc(OCCc3ccccn3)cc2)cc1 [Example 21, Thioacetic acid S-(2-oxo-2-{4-[4-(2-pyridin-2-yl-ethoxy)-benzenesulfonylamino]-phenyl}-ethyl) ester], the IC50 (HDAC in cells) was ≤ 1000 nM and the IC50 (HDAC) was ≤ 1000 nM.

For CC(=O)SCC(=O)c1ccc(NS(=O)(=O)c2ccc(OCCN3CCCCC3)cc2)nc1 [Example 24, Thioacetic acid S-(2-oxo-2-{6-[4-(2-piperidin-1-yl-ethoxy)-benzenesulfonylamino]-pyridin-3-yl}-ethyl) ester], the IC50 (HDAC in cells) was ≤ 1000 nM and the IC50 (HDAC) was ≤ 1000 nM.

In the case of CC(=O)SCC(=O)c1ccc(NS(=O)(=O)c2ccc(OCCc3ccccn3)cc2)nc1 [Example 18, Thioacetic acid S-(2-oxo-2-{6-[4-(2-pyridin-2-yl-ethoxy)-benzenesulfonylamino]-pyridin-3-yl}-ethyl) ester], the IC50 (HDAC in cells) is reported as ≤ 1000 nM and the IC50 (HDAC) is reported as ≤ 1000 nM.

CC(=O)SCC(=O)c1ccc(NS(=O)(=O)c2ccc(OCCCN3CCOCC3)cc2)cc1 [Example 12, Thioacetic acid S-(2-{4-[4-(3-morpholin-4-yl-propoxy)-benzenesulfonylamino]-phenyl}-2-oxo-ethyl) ester] was tested, and the IC50 (HDAC in cells) was ≤ 1000 nM and the IC50 (HDAC) was ≤ 1000 nM.

With CC(=O)SCC(=O)c1ccc(NS(=O)(=O)c2ccc(OCc3ccccn3)cc2)cc1 [Example 15, Thioacetic acid S-(2-oxo-2-{4-[4-(pyridin-2-ylmethoxy)-benzenesulfonylamino]-phenyl}-ethyl) ester] the IC50 (HDAC in cells) was ≤ 1000 nM and the IC50 (HDAC) was ≤ 1000 nM.

With CC(=O)SCC(=O)c1ccc(NS(=O)(=O)c2ccc(S(=O)(=O)N3CCOCC3)cc2)cc1 [Example 05, Thioacetic acid S-(2-{4-[4-(morpholine-4-sulfonyl)-benzenesulfonylamino]-phenyl}-2-oxo-ethyl) ester] the IC50 (HDAC in cells) was ≤ 1000 nM and the IC50 (HDAC) was ≤ 1000 nM.

In the case of CC(=O)SCC(=O)c1ccc(NS(=O)(=O)c2ccc(OCCCCc3ccccc3)cc2)nc1 [Example 14, Thioacetic acid S-(2-oxo-2-{6-[4-(4-phenyl-butoxy)-benzenesulfonylamino]-pyridin-3-yl}-ethyl) ester], the IC50 (HDAC in cells) is reported as ≤ 1000 nM and the IC50 (HDAC) is reported as ≤ 1000 nM.

For CC(=O)SCC(=O)c1ccc(NS(=O)(=O)c2ccc(OCCN3CCCC3)cc2)nc1 [Example 26, Thioacetic acid S-(2-oxo-2-{6-[4-(2-pyrrolidin-1-yl-ethoxy)-benzenesulfonylamino]-pyridin-3-yl}-ethyl) ester], the IC50 (HDAC in cells) was ≤ 1000 nM and the IC50 (HDAC) was ≤ 1000 nM.

With CC(=O)SCC(=O)c1ccc(NS(=O)(=O)c2ccc(NCc3ccccn3)cc2)cc1 [Example 08, Thioacetic acid S-[2-oxo-2-(4-{4-[(pyridin-2-ylmethyl)-amino]-benzenesulfonylamino}-phenyl)-ethyl] ester] the IC50 (HDAC in cells) was ≤ 1000 nM and the IC50 (HDAC) was ≤ 1000 nM.

CC(=O)SCC(=O)c1ccc(NS(=O)(=O)c2ccc(OCCCc3ccccn3)cc2)nc1 [Example 28, Thioacetic acid S-(2-oxo-2-{6-[4-(3-pyridin-2-yl-propoxy)-benzenesulfonylamino]-pyridin-3-yl}-ethyl) ester] was tested, and the IC50 (HDAC in cells) was ≤ 1000 nM and the IC50 (HDAC) was ≤ 1000 nM.

With CC(=O)SCC(=O)c1ccc(NS(=O)(=O)c2ccc(OCCCN3CCCCC3)cc2)cc1 [Example 22, Thioacetic acid S-(2-oxo-2-{4-[4-(3-piperidin-1-yl-propoxy)-benzenesulfonylamino]-phenyl}-ethyl) ester] the IC50 (HDAC in cells) was ≤ 1000 nM and the IC50 (HDAC) was ≤ 1000 nM.

In the case of CC(=O)SCC(=O)c1ccc(NS(=O)(=O)c2ccc(OCCCc3cccnc3)cc2)cc1 [Example 16, Thioacetic acid S-(2-oxo-2-{4-[4-(3-pyridin-3-yl-propoxy)-benzenesulfonylamino]-phenyl}-ethyl) ester], the IC50 (HDAC in cells) is reported as > 1000 nM and the IC50 (HDAC) is reported as ≤ 1000 nM.

In the case of CC(=O)SCC(=O)c1ccc(NS(=O)(=O)c2ccc(OCCCCc3ccccc3)cc2)cc1 [Example 13, Thioacetic acid S-(2-oxo-2-{4-[4-(4-phenyl-butoxy)-benzenesulfonylamino]-phenyl}-ethyl) ester], the IC50 (HDAC in cells) is reported as ≤ 1000 nM and the IC50 (HDAC) is reported as ≤ 1000 nM.

— US20070135431A1, “INHIBITORS OF HISTONE DEACETYLASE FOR THE TREATMENT OF DISEASE” (KALYPSYS, INC, priority 2005, published 2007)
